Data set [1] is described as follows: Lipophilicity determination by HPLC (capacity factor k / log k). The class given is physicochemical. Conditions: RP-HPLC, C18, MeOH 55%/H2O 45%. The source says: A Waters Alliance 2695 XE HPLC separation module and a Waters Photodiode Array Detector 2996 (Waters Corp., Milford, MA, USA) were used. A Symmetry C18 5 μm, 4.6 × 250 mm, part number WAT054275 (Waters Corp., Milford, MA, USA) chromatographic column was used. The HPLC separation process was monitored by Empower 2 Chromatography Data Software, Waters 2009 (Waters Corp., Milford, MA, USA). A mixture of MeOH p.a. (55%) and H2O-HPLC–Milli-Q Grade (45%) was used as a mobile phase. The total flow of the column was 1.0 mL/min, injection volume 30 μL, column temperature 45°C, and sample temperature 10°C. The detection wavelength of 210 nm was chosen. The KI methanolic solution was used for the dead time (t D) determination. Retention times (t R) were measured in minutes. The capacity factors k were calculated using the Empower 2 Chromatography Data Software according to formula k = (t R − t D)/t D, where t R is the retention time of the solute, whereas t D denotes the dead time obtained using an unretained analyte. logk, calculated from the capacity factor k, is used as the lipophilicity index converted to logP scale.

Data set [2] in a line: pKa determination by RP-HPLC. It counts as physicochemical. The conditions noted are these: from retention factor vs pH of mobile phase, recalculated for water medium.
The test system of data set [3] is Mycobacterium avium subsp. paratuberculosis CIT03. Put plainly: In vitro antimycobacterial evaluation (alamarBlue, MIC). The class given is cell-based. The conditions noted are these: Mycobacterium avium, 264 h; MIC/IC90, 11 days incubation, 37°C. The method, then:
(§1) Clinical isolates of Mycobacterium avium subsp. paratuberculosis CIT03 and M. intracellulare were grown in Middlebrook broth (MB), supplemented with oleic-albumin-dextrose-catalase supplement (OADC, Becton Dickinson, UK) and mycobactin J (2 μg/mL). Identification of these isolates was performed using biochemical and molecular protocols. At log phase growth, the culture (10 mL) was centrifuged at 15,000 rpm/20 min using a bench top centrifuge (Model CR 4–12, Jouan Inc., UK). Following the removal of the supernatant, the pellet was washed in fresh Middlebrook 7H9GC broth and resuspended in fresh supplemented MB (10 mL). The turbidity was adjusted to match McFarland standard no. 1 (3 × 10^8 cfu) with MB broth. A further 1 : 20 dilution of the culture was then performed in MB broth. The antimicrobial susceptibility of all four mycobacterial species was investigated in a 96-well plate format. In these experiments, sterile deionised water (300 μL) was added to all outer-perimeter wells of the plates to minimize evaporation of the medium in the test wells during incubation. Each evaluated compound (100 μL) was incubated with each of the mycobacterial species (100 μL). Dilutions of each compound were prepared in duplicate. For all synthesized compounds, final concentrations ranged from 1,000 μg/mL to 8 μg/mL. All compounds were prepared in DMSO, and subsequent dilutions were made in supplemented MB. The plates were sealed with parafilm and incubated at 37°C, for 7 days in the case of M. intracellulare and 11 days in the case of M. avium paratuberculosis. Following incubation, a 10% addition of alamarBlue (AbD Serotec) was mixed with each well, and readings at 570 nm and 600 nm were taken, initially for background subtraction and subsequently after 24 h reincubation. […] For noninterfering compounds, a blue colour in the well was interpreted as an absence of growth, and a pink colour was scored as growth. The MIC was initially defined as the lowest concentration which prevented a visual colour change from blue to pink. […] The MIC/IC90 value is routinely and widely used in bacterial assays and is a standard detection limit according to the Clinical and Laboratory Standards Institute (CLSI, http://www.clsi.org/).
A general note: Alamar Blue is a resazurin reagent that responds to reducing activity.

In data set [4] the test system is Mycobacterium intracellulare. The data set is described as above. Conditions: Mycobacterium intracellulare, 168 h; MIC/IC90, 7 days incubation, 37°C. The class given is cell-based. The method, then: as §1
The next data set has as its system spinach chloroplasts. Put plainly: Photosynthetic electron transport (PET) in spinach chloroplasts (DCPIP photoreduction). It counts as biochemical, Spinacia oleracea L. The conditions noted are these: DMSO 8% v/v. The method, then:
Chloroplasts were prepared from spinach (Spinacia oleracea L.) according to Masarovičová and Král'ová [38]. The inhibition of photosynthetic electron transport (PET) in spinach chloroplasts was determined spectrophotometrically (Genesys 6, Thermo Scientific, USA), using an artificial electron acceptor 2,6-dichlorophenol-indophenol (DCIPP) according to Král'ová et al., and the rate of photosynthetic electron transport was monitored as a photoreduction of DCPIP. The measurements were carried out in phosphate buffer (0.02 mol/L, pH 7.2) containing sucrose (0.4 mol/L), MgCl2 (0.005 mol/L), and NaCl (0.015 mol/L). The chlorophyll content was 30 mg/L in these experiments, and the samples were irradiated (~100 W/m^2 with 10 cm distance) with a halogen lamp (250 W) using a 4 cm water filter to prevent warming of the samples (suspension temperature 22°C). The studied compounds were dissolved in DMSO due to their limited water solubility, and the concentration of DMSO was constant (8% (v/v)) in control as well as in amphiphile-treated samples.

Data set [5] concerns human monocytic leukaemia THP-1 cell line. Put plainly: In vitro cytotoxicity assay (WST-1). It counts as cell-based. The conditions noted are these: 24 h; for increase in LD50 relative to cytotoxicity: human, 30 μmol/L. The method, then:
The human monocytic leukaemia THP-1 cell line was purchased from the European Collection of Cell Cultures (ECACC, Salisbury, UK). […] Cells were passaged at approximately one-week intervals. […] The maximum concentration of DMSO in the assays never exceeded 0.1%. Cytotoxicity of the compounds was determined using a WST-1 assay kit (Roche Diagnostics, Mannheim, Germany), as described previously. The median lethal dose values, LD50, were deduced through the production of a dose-response curve. All data from three independent experiments were evaluated using GraphPad Prism 5.00 software (GraphPad Software, San Diego, CA, USA, http://www.graphpad.com).
A general note: Tetrazolium dyes change colour on reduction, which living cells bring about.

Results on seven compounds are retold here after PMC3830801, “Synthesis and Biological Evaluation of 2-Hydroxy-3-[(2-aryloxyethyl)amino]propyl 4-[(Alkoxycarbonyl)amino]benzoates” (The Scientific World Journal, 2013).

As usually defined, the pKa is the pH at which an ionisable group is half protonated. A word on the MIC: it is the lowest concentration that inhibits growth of the organism. A higher MIC goes with weaker potency. In data set [1], `CCCCOC(=O)Nc1ccc(C(=O)OCC(O)CNCCOc2ccc(F)cc2)cc1.Cl` (stereo not drawn) [Compound 23d, 3-[2-(4-Fluorophenoxy)ethylamino]-2-hydroxypropyl 4-(Butoxycarbonylamino)benzoate Hydrochloride] showed a Log k of 0.4365. For the same compound, the pKa in data set [2] was 8.08. The results for the MIC in data set [3] and in data set [4] were 64 µM and 258 µM, respectively. Besides, the “effect on the rate of PET (in words)” value in the data set with spinach chloroplasts is on record as “significantly stimulated the rate of PET”. The “increase in LD50 relative to cytotoxicity” value in data set [5] came to 96%.
Compound `CC[C@@]1(O)C(=O)OCc2c1cc1n(c2=O)Cc2cc3ccccc3nc2-1` [camptothecin, reference compound] had an LD50 in data set [5] (THP-1 cells, highest dose 30 μmol/L) of 0.16 ± 0.07 µmol/L.
`CCCCOC(=O)Nc1ccc(C(=O)OCC(O)CNCCOc2c(OC)cccc2OC)cc1.Cl` (stereo not drawn) [Compound 21d, 2-Hydroxy-3-[2-(2,6-dimethoxyphenoxy)ethylamino]-propyl 4-(Butoxycarbonylamino)benzoate Hydrochloride]: the Log k in data set [1] was determined as 0.4177. The pKa in data set [2] was 8.58. In addition, the values for the minimal inhibitory concentration (MIC) in data set [3] and in data set [4] were 59 µM and 114 µM, respectively. The “effect on the rate of PET (in words)” value with spinach chloroplasts is on record as “significantly stimulated the rate of PET”. Moreover, the “increase in LD50 relative to cytotoxicity” value in data set [5] was 61%.
Regarding `CCCOC(=O)Nc1ccc(C(=O)OCC(O)CNCCOc2ccc(OC)cc2)cc1.Cl` (stereo not drawn) [Compound 20c, 2-Hydroxy-3-[2-(4-methoxyphenoxy)ethylamino]-propyl 4-(Propoxycarbonylamino)benzoate Hydrochloride], the Log k in data set [1] amounted to 0.4108. Moreover, the pKa in data set [2] was 7.99. For the same compound, the minimum inhibitory concentration (MIC) in data set [3] and in data set [4] was 259 µM each time. Besides, the “effect on the rate of PET (in words)” value with spinach chloroplasts is given as “relatively strong PET stimulation”.
With `CCCOC(=O)Nc1ccc(C(=O)OCC(O)CNCCOc2ccccc2OC)cc1.Cl` (stereo not drawn) [Compound 19c, 2-Hydroxy-3-[2-(2-methoxyphenoxy)ethylamino]-propyl 4-(Propoxycarbonylamino)benzoate Hydrochloride], in data set [1], the Log k is given as 0.4089. The pKa in data set [2] is 8.67. The results for the minimum inhibitory concentration (MIC) in data set [3] and in data set [4] were 64 µM and 259 µM, respectively. In addition, the “effect on the rate of PET (in words)” value in the data set with spinach chloroplasts is on record as “relatively strong PET stimulation”.
`CCCCOC(=O)Nc1ccc(C(=O)OCC(O)CNCCOc2ccc(OC)cc2)cc1.Cl` (stereo not drawn) [Compound 20d, 2-Hydroxy-3-[2-(4-methoxyphenoxy)ethylamino]-propyl 4-(Butoxycarbonylamino)benzoate Hydrochloride] returned a Log k in data set [1] of 0.4241. Moreover, the pKa in data set [2] is 8.18. For the same compound, the MIC in data set [3] came to 62 µM; in data set [4], 121 µM. For the same compound, in the data set on spinach chloroplasts, the “effect on the rate of PET (in words)” value is listed as “significantly stimulated the rate of PET”.
In data set [1], `CCCCOC(=O)Nc1ccc(C(=O)OCC(O)CNCCOc2ccccc2F)cc1.Cl` (stereo not drawn) [Compound 22d, 3-[2-(2-Fluorophenoxy)ethylamino]-2-hydroxypropyl 4-(Butoxycarbonylamino)benzoate Hydrochloride] displayed a Log k of 0.4341. Also, in data set [2], the pKa was 7.96. The MIC in data set [3] and in data set [4] was 124 µM in each case. The “effect on the rate of PET (in words)” value in the data set with spinach chloroplasts is “significantly stimulated the rate of PET”.
